Patent US9415031B2, “D-serine transporter inhibitors as pharmaceutical compositions for the treatment of visual system disorders” (Allergan, Inc., priority 2011, dated 2016)
Entries after “also recorded” stand apart in the source; their conditions may differ.

Columns and labels:
[1] = target: T1, human ASCT2 (Homo sapiens, UniProt Q15758); assay: transport into HEK cells expressing ASCT2; format: cell-based
T1 construct: expressed in transfected cells; host or cells: HEK (human embryonic kidney) cells
T1 sequence (Q15758 1-541): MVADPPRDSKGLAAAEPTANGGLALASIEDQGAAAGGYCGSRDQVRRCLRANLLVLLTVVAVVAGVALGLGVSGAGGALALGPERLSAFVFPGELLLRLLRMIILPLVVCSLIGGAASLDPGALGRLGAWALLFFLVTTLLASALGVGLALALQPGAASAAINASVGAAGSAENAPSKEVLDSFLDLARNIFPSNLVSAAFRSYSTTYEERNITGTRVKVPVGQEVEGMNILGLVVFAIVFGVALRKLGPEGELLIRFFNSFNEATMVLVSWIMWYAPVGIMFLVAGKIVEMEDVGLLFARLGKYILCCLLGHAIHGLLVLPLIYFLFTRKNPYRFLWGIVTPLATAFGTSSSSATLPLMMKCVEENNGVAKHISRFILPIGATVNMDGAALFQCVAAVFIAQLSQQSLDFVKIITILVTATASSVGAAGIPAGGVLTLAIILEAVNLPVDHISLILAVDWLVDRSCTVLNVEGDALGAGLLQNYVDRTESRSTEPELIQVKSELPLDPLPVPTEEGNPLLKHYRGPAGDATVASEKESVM
Protocol: (§1) Cell-based assays: the transport of [^3H]L- or D-serine was measured in primary cultures of rat hippocampal astrocytes or in human embryonic kidney (HEK) cells expressing ASCT transporter sub-types. For the astrocyte assays, cells were plated on either 24- or 96-well plates at a density of 50,000 cells per well. For the HEK assays, cells were plated on coated 96-well plates at a density of 80,000 cells/well. Assays were conducted in duplicate at room temperature in assay buffer consisting of: NaCl: 150 mM, KCl: 2 mM; MgCl2: 1 mM; CaCl2: 1 mM; HEPES: Tris buffer: 10 mM, pH7.4. To assess the sodium-dependence of transport, NaCl was replaced in the assay buffer by equimolar choline chloride. Following aspiration of growth medium and 2 washes with assay buffer, cells were incubated with [^3H]L- or D-serine at a final concentration of 1 μM for 5 min (astrocytes) or 1 min (HEK cells), after which the incubation medium was aspirated and the cells washed twice with ice-cold assay buffer. Cells containing radiolabel were solubilized in 100 μl of 1% Triton-X100 and an aliquot counted in a beta counter. IC50 values were determined over a range of at least 6 concentrations and derived from curve-fitting algorithms available in Graph Pad Prism 4.

[2] = tested on: ASCT2; details: literature range; cited from earlier work
[3] = tested on: rat hippocampal astrocytes; assay: [3H]D-serine transport into primary cultures of rat hippocampal astrocytes; format: cell-based; details: two-component inhibition curves, FIG. 4
Protocol: as §1

[4] = target: T2, ASCT1 (Homo sapiens, UniProt P43007); details: one literature report; cited from earlier work
T2 sequence (P43007 1-532): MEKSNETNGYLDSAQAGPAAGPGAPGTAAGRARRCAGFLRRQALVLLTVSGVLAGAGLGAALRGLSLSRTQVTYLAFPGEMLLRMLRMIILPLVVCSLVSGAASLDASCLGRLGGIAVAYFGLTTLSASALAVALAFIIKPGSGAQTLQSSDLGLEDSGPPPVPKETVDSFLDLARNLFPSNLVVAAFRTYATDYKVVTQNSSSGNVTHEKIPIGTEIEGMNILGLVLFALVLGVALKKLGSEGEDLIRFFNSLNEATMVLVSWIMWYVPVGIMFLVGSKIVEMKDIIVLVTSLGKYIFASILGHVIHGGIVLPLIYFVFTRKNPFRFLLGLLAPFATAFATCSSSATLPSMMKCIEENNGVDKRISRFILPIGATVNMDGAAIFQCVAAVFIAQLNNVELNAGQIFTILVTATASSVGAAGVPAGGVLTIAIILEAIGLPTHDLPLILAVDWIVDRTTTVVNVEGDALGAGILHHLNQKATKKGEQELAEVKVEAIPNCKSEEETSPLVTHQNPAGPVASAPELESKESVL

[5] = target: T2, ASCT1; assay: transport into HEK cells expressing ASCT1; format: cell-based; design: expressed in transfected cells; host or cells: HEK (human embryonic kidney) cells; details: for selectivity towards ASCT1: inhibition of [3H]L-serine transport, HEK cells expressing ASCT1 vs ASCT2
Protocol: as §1

[6] = tested on: normal rats; assay: sweep VEP visual acuity in normal rats; format: in vivo, rat; details: 0.03-1.6 cpd, vs saline
Text: Sweep visually evoked potential (sweep VEP, sVEP), which was first introduced by Regan in 1973, has become an important technique to measure visual function. It is an objective method that can be used to assess visual acuity (VA) and contrast sensitivity (CS) in infants, young children and people with special needs. It was adapted to measure VA and CS in animals.
(§2) The recording electrodes were permanently implanted into the right visual cortex of Long Evans rats at lambda and 4.5 mm lateral to the midline, to a depth of 800 microns (layer III/iV). A reference electrode was placed epidurally on the midline 1.2 mm anterior to bregma. All recordings were conducted in awake rats starting at least two weeks after recovery from surgery. During recording the rats were alert and restrained in a home-made restrainer. They were habituated 2-3 times pre-surgery and at least three more times during seven days post-surgery. PowerDiva software from Anthony Norcia (Smith Kettlewell Institute of Visual Sciences) was used for data acquisition and analysis. Similar recording was performed in rabbits (FIG. 11) except the screw electrodes were place on top of the skull.
(§3) Stimuli were presented on a CRT computer monitor and consist of full-field sine-wave gratings at 80% contrast, reversing at 6.25 Hz. VEPs were elicited by horizontally oriented gratings. The display was positioned 24 cm in front of the rat and centered at the vertical meridian. Mean luminance was held constant at 20 cd. For sVEP in normal rats (slides 76-79), one stimulus presentation (one trial) consists of a spatial frequency sweep decreasing from 1.6 to 0.03 cycles/degree in 15 linear steps. A total of 20 trials were collected. Visual acuity (VA) thresholds were estimated using PowerDiva software. For fixed frequency stimulus in optic nerve crushed (ONC) rats (slides 80-83), the spatial frequency was fixed at 0.2 or 0.5 cycles/degree. Each trial lasts for 15 s. A total of 5 trials were collected and the signal powers were calculated.

[7] = tested on: rats after blue-light treatment; assay: contrast sensitivity (sweep VEP) in blue-light treated rats; format: in vivo, rat
Protocol: as §2
One stimulus presentation (one trial) consists of a contrast sweep increasing from 2.5 to 70% in 15 log steps. A total of 20 to 30 trials were collected. Contrast thresholds (CT) were estimated using PowerDiva software. Contrast sensitivity (CS) is calculated as 1/CT.
Blue-light treatment damages photoreceptors in the retina, and has been proposed as a model of age related macular degeneration (ARMD; Wielgus et al., 2010).

[8] = tested on: astrocytes; assay: [3H]L-serine transport into astrocytes; format: cell-based, rat; details: FIG. 6B
Protocol: as §1

[9] = tested on: ONC rat; assay: fixed-frequency VEP in optic nerve crush (ONC) rats; format: in vivo; details: 30 mg/kg, spatial frequency fixed at 0.2 cpd, vs saline
Protocol: as §2
as §3, with “Visual acuity (VA) thresholds were estimated using PowerDiva software. For fixed frequency stimulus in optic nerve crushed (ONC) rats (slides 80-83), the spatial frequency was fixed at 0.2 or 0.5 cycles/degree. Each trial lasts for 15 s.” left out

[10] = tested on: NMDA receptor-mediated excitatory postsynaptic currents (EPSCNMDA); assay: electrophysiological recording of NMDA receptor-mediated EPSCs from rat hippocampal slices; format: cell-based
Protocol: […] thick hippocampal slices were prepared from […] rats using Leica VT1000S-microtome. Slices were perfused with ACSF containing: 121 mM NaCl, 2.5 mM KCl, 2.0 mM Mg2SO4, 2.0 CaCl2, 1 mM NaH2PO4, 26.2 NaHCO3, and 11 mM glucose, which was equilibrated with 5% CO2/95% O2. Experiments were performed in a recording chamber on the stage of an Olympus BX-61wi microscope with infrared DIC optics for visualizing whole-cell patch-clamp recordings. EPSPs were recorded from CA1 pyramidal neurons by stimulating the Schaffer collateral-commissural pathway using a bipolar tungsten electrode. The recording pipettes were filled with regular ICM containing: 120 mM Cs-gluconate, 5 mM NaCl, 10 mM KCl, 0.1 mM CaCl2, 1 mM EGTA, 2 mM MgCl2, 10 mM HEPES, 2 mM Na-ATP, 2 mM Na2-phosphocreatine, and 0.25 mM Na-GTP, pH 7.3 (290 mOsm).
To measure NMDA-mediated EPSCs, extracellular Mg2SO4 was lowered to 0.2 mM and 2 μM NBQX and 100 μM picrotoxin were added in the ACSF. 1 μM 7-CKY (7-chlorokynurenic acid) was added to improve the sensitivity of […] to D-serine.

[11] = tested on: normal rabbits; assay: sweep VEP in normal rabbits; format: in vivo, rabbit; details: 30 mg/kg, 0.03-1.6 cpd, vs saline
Protocol: as §2
as §3, with “Visual acuity (VA) thresholds were estimated using PowerDiva software. For fixed frequency stimulus in optic nerve crushed (ONC) rats (slides 80-83), the spatial frequency was fixed at 0.2 or 0.5 cycles/degree. Each trial lasts for 15 s.” left out

[12] = tested on: long-term potentiation (LTP) in the primary visual cortex; assay: long-term potentiation (LTP) in primary visual cortex slices; format: cell-based; details: rat visual cortex slice
Protocol: Long Term Potentiation (LTP) in primary visual cortex has been used as a cellular model for visual cortex plasticity and has functional consequences on visual evoked responses. NMDA receptors play a critical role in visual cortex LTP induction.
Following decapitation of the rat, the brain was rapidly removed and immersed in ice-cold artificial cerebrospinal fluid (ACSF) containing 124 mM NaCl, 3 mM KCl, 1.25 mM KH2PO4, 3.4 mM CaCl2, 2.5 mM MgSO4, 26 mM NaHCO3, and 10 mM D-glucose. A block of visual cortex was created by removing the frontal ⅔ portion of the brain and the cerebellum. Coronal visual cortex slices of 375 μm were prepared from adult Sprague Dawley (SD) rats using a vibratome (VT 1000 S; Leica). The slices were maintained in an interface recording chamber perfused with preheated ACSF. Slices were continuously perfused with this solution at a rate of 1.00-1.50 ml/min while the surface of the slices was exposed to warm, humidified 95% O2/5% CO2 and maintained at 31±1° C. Visual cortex slices were allowed to recover for 1 hr before recording began. […] This was repeated 2 additional times with a 1 minute intertrain interval, and the level of LTP was recorded for at least 30 min. Changes in amplitude of the synaptic response were used to measure the extent of LTP because it was determined to be the more consistent parameter than the slope of the response. […]

NC(=O)CC[C@H](N)C(=O)O [L-glutamine]
selectivity towards ASCT2 ([1]; inhibition of [3H]L-serine transport, HEK cells expressing ASCT1 vs ASCT2): selectivity towards ASCT2; also recorded: selective for ASCT2 | reported affinity for ASCT2 [2]: 23 to 70 µM | proportion of D-serine transport represented by the component for which the compound showed higher affinity [3]: approximately 40%

O=C(O)[C@@H]1C[C@@H](O)CN1 [L-t-4OHPro, L-trans-4-hydroxyproline]
reported affinity for ASCT1 [4]: high affinity | selectivity towards ASCT1 [5]: selectivity towards ASCT1 | selectivity towards ASCT1 ([5]; listed as L-trans-4OHPro): selective for ASCT1 | proportion of D-serine transport represented by the component for which the compound showed higher affinity [3]: approximately 60%

N[C@H](C(=O)O)c1ccc(F)cc1 [L-4FPG, L-4-fluorophenylglycine]
visual function (visual acuity) assessed by sweep VEP ([6]; 10 mg/kg, 40 min after injection, 10 mg/kg): enhance visual function | visual function (visual acuity) assessed by sweep VEP ([6]; 10 mg/kg, 40 min after injection, listed as L-FPG, 10 mg/kg): enhances visual function | contrast sensitivity ([7]; rats fifty-three weeks after blue-light treatment, 10 mg/kg, 0.575 cpd, vs saline): improved the contrast sensitivity

N[C@H](CO)C(=O)O [D-serine]
inhibition of [3H]L-serine transport ([1]; ASCT2-expressing HEK cells, FIG. 6B): completely inhibited | inhibition of [3H]L-serine transport ([5]; ASCT1-expressing HEK cells, FIG. 6B): completely inhibited | transport of [3H]D-serine into ASCT1-expressing HEK cells ([5]; with and without extracellular sodium, FIG. 6A): transported into ASCT1-expressing HEK cells in a sodium-dependent manner | inhibition of [3H]L-serine transport [8]: completely inhibited

N[C@H](C(=O)O)c1ccc(O)cc1 [L-4OHPG, L-4-hydroxyphenylglycine]
visually-evoked signals (power of signals) from the visual cortex [9]: visual enhancement effect; also recorded: enhances visually-evoked signals | visual function (visual acuity) assessed by sweep VEP ([6]; 30 mg/kg, 30 min after injection, 30 mg/kg): enhance visual function | percentage increase in the amplitude of EPSCNMDA ([10]; 1000 μM, in presence of 1 μM 7-CKY, representative experiment): 22% | duration of the potentiation effect on EPSCNMDA ([10]; 1000 μM, then control buffer): lasted for one hour | effect on NMDA receptor-mediated EPSCs ([10]; CA1 region of the hippocampus): dose-dependent effects; also recorded: potentiated | visual function assessed by sweep VEP [11]: enhances visual function; also recorded: enhanced sweep VEP | effect on LTP evoked by theta burst stimulation [12]: dose-dependently facilitates; also recorded: enhanced LTP in a concentration-dependent manner | effect on LTP with D-amino acid oxidase (D-AAO) in the perfusion medium ([12]; D-AAO): dependent on extracellular D-serine; also recorded: completely prevented | contrast sensitivity ([7]; rats with damaged retinas following blue-light treatment, FIG. 12 as described in text): significant improvement in contrast sensitivity
